The text below walks through data of patent US8217164B2, “Use of a lactose-derived C-glycoside compound as an agent for activating and regulating cutaneous immunity” (L'Oreal, priority 2006, dated 2012).

The experiment concerns human peripheral blood cells (lymphocyte proliferation). As to the kind of experiment: Immunostimulant activity: lymphocyte proliferation by BrdU labelling. It counts as cell-based. The settings on record: 10 to 0.05 mM, 3 days of culture. The procedure: The immunostimulant activity is tested in the following way: human peripheral blood cells are cultured in the presence of an RPMI-type culture medium supplemented with L-glutamine (2 mM), penicillin/streptomycin (50 μg/50 IU/ml) and foetal calf serum (10%). The C-glycoside derivatives are added at various concentrations (10 to 0.05 mM), as is phytohaemagglutinin (PHA at 5*G/ml), a positive control for lymphocyte proliferation.
(In general: Incorporation of labelled thymidine or its analogues reports DNA synthesis.)

For `CC(=O)C[C@@H]1O[C@H](CO)[C@@H](OC2O[C@H](CO)[C@H](O)[C@H](O)[C@H]2O)[C@H](O)[C@H]1O` (stereo partly shown) [Compound 2], the “human lymphocyte proliferation (immunostimulant activity)” value was “tendency to stimulate human lymphocyte proliferation at all the concentrations tested”.
